# Results published in patent publication US20260297108A1, “NOVEL INHIBITORS OF PIKFYVE AND METHODS USING SAME” (priority 2023, published 2026).
# Read-outs that look alike come from different tables or passages of the source.
# Target: PIKFYVE (Homo sapiens, UniProt Q9Y2I7)
# Experiment: KINOMEscan Kinase Assay (PIKFYVE inhibitory activity)
# [1] = read-out: PIKfyve Activity (% inhibition)
# [2] = read-out: PIKfyve Activity (PIKfyve % inhibition)
# PIKFYVE, sequence (Q9Y2I7 whole entry): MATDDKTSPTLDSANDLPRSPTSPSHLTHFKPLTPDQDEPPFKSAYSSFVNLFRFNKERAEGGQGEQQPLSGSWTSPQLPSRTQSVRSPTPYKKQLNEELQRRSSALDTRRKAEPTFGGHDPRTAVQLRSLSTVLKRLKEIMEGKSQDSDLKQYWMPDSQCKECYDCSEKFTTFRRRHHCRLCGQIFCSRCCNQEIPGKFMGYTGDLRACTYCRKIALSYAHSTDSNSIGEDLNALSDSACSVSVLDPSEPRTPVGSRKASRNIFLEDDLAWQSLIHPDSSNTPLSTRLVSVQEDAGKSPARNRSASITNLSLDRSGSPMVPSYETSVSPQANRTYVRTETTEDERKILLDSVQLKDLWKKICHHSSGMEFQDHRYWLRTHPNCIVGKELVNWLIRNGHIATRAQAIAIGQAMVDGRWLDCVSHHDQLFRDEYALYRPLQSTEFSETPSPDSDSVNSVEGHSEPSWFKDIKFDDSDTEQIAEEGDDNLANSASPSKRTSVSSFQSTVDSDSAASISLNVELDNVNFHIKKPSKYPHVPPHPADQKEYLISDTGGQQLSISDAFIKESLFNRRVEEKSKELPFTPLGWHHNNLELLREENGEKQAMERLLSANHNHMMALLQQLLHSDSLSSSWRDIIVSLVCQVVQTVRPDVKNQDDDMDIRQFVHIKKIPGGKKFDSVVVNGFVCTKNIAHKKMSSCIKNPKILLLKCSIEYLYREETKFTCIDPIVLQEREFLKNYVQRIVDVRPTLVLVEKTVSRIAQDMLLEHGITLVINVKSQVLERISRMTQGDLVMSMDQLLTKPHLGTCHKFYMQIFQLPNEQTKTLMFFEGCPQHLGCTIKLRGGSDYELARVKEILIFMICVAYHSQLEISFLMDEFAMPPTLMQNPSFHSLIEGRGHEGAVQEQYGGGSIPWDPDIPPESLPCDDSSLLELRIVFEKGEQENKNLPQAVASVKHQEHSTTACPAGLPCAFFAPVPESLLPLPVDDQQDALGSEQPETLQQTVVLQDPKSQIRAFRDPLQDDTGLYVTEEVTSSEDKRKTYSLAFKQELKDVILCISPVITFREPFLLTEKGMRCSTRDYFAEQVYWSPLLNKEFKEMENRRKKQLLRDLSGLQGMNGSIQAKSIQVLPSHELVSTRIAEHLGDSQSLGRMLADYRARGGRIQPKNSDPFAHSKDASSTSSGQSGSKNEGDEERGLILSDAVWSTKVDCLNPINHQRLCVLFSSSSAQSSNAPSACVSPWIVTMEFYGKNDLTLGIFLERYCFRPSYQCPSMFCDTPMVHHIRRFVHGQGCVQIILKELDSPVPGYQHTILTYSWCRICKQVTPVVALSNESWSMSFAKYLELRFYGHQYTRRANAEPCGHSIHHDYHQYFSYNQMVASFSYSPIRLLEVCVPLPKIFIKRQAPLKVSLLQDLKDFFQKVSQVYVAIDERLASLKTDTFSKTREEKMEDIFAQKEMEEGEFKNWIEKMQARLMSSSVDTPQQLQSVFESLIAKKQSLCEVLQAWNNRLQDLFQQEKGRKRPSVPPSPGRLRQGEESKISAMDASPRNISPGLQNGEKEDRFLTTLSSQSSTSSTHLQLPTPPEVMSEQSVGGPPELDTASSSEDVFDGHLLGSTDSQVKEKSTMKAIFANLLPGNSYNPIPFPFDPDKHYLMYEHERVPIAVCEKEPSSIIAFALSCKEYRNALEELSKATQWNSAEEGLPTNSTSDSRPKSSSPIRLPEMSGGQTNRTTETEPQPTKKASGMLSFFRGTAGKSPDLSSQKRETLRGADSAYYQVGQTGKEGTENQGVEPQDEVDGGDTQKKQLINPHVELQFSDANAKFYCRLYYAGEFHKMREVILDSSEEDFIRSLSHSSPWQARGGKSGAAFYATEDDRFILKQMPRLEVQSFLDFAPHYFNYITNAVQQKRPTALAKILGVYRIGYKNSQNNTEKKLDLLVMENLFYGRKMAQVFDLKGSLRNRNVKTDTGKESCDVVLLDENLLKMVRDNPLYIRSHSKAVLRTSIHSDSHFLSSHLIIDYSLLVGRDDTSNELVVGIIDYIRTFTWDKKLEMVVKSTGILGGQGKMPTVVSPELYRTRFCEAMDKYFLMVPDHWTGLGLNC
SMILES,inhibition at 0.001 µM [2] [%],further results
Cc1cccc(-c2ccn(-c3cc(N4CCOCC4)c4nc(C(=O)N5CCN(S(C)(=O)=O)CC5)n(C)c4n3)n2)c1 [Ex. 304],,inhibition at 0.001 µM [1]: 46%
Cc1cccc(-c2ccn(-c3nc(N4CCOCC4)c4sc(C(=O)N5CCN(S(C)(=O)=O)CC5)cc4n3)n2)c1 [Ex. 286],52 to 100,
Cc1cccc(-c2ccn(-c3cc(N4CCOCC4)c4sc(NC(=O)C5CCN(C)C5)cc4n3)n2)c1 (stereo not drawn) [Ex. 271],52 to 100,
Cc1cccc(-c2ccn(-c3nc(N4CCOCC4)c4nc(C(=O)NC5CC5)[nH]c4n3)n2)c1 [Ex. 274],52 to 100,
Cc1cccc(-c2ccn(-c3cc(N4CCOCC4)c4nc(C(=O)NC5CC5)n(C)c4n3)n2)c1 [Ex. 309],52 to 100,
"Cc1cccc(-c2ccn(-c3cc(N4CCOCC4)c4nc(CN5CCN(C(C)C)CC5)n(C)c4n3)n2)c1 [Ex. 79, 4-(2-((4-isopropylpiperazin-1-yl)methyl)-3-methyl-5-(3-(m-tolyl)-1H-pyrazol-1-yl)-3H-imidazo[4,5-b]pyridin-7-yl)morpholine]",52 to 100,
Cc1cccc(-c2ccn(-c3nc4[nH]c(C(=O)N5CCC(C(C)(C)O)CC5)nc4c(N4CCOCC4)c3F)n2)c1 [Ex. 306],,inhibition at 0.003 µM [1]: 9%
"Cc1cccc(-c2ccn(-c3cc(N4CCOCC4)c4sc(CN5CCN(S(C)(=O)=O)CC5)c(C)c4n3)n2)c1 [Ex. 169, 4-(3-Methyl-2-((4-(methylsulfonyl)piperazin-1-yl)methyl)-5-(3-(m-tolyl)-1H-pyrazol-1-yl)thieno[3,2-b]pyridin-7-yl)morpholine]",,inhibition at 0.003 µM [1]: 47%
Cc1cccc(-c2ccn(-c3nc(N4CCOCC4)c4nc(CO)[nH]c4n3)n2)c1 [Ex. 314],,inhibition at 0.001 µM [1]: 40%
Cc1cccc(-c2ccn(-c3nc(N4CCOCC4)c4nc(CN5CCN(S(C)(=N)=O)CC5)[nH]c4n3)n2)c1 (stereo not drawn) [Ex. 282],,inhibition at 0.001 µM [1]: 41%
"Cc1cccc(-c2ccn(-c3cc(N4CCOCC4)c4sc(C(=O)N5CCN(C)CC5)cc4n3)n2)c1 [Ex. 217, (4-Methylpiperazin-1-yl) (7-morpholino-5-(3-(m-tolyl)-1H-pyrazol-1-yl)thieno[3,2-b]pyridin-2-yl)methanone]",52 to 100,
Cc1cccc(-c2ccn(-c3nc(N4CCOCC4)c4nc(C(=O)NC5COC5)[nH]c4n3)n2)c1 [Ex. 275],,inhibition at 0.001 µM [1]: 40%
Cc1cccc(-c2ccn(-c3cc(N4CCOCC4)c4nc(C(=O)NC5CC5)[nH]c4n3)n2)c1 [Ex. 305],52 to 100,
Cc1cccc(-c2ccn(-c3cc(N4CCOCC4)c4nc(C(=O)N5CCC(N6CCC6)C(F)C5)[nH]c4n3)n2)c1 (stereo not drawn) [Ex. 89],52 to 100,
Cc1cccc(-c2ccn(-c3nc(N4CCOCC4)c4nc(CO)n(C)c4n3)n2)c1 [Ex. 315],,inhibition at 0.001 µM [1]: 47%
"Cc1cccc(-c2ccn(-c3cc(N4CCOCC4)c4nc(CN5CCC(N(C)C)C(F)C5)n(C)c4n3)n2)c1 (stereo not drawn) [Ex. 82, 3-fluoro-N,N-dimethyl-1-((3-methyl-7-morpholino-5-(3-(m-tolyl)-1H-pyrazol-1-yl)-3H-imidazo[4,5-b]pyridin-2-yl)methyl)piperidin-4-amine]",52 to 100,
Cc1cccc(-c2ccn(-c3cc(N4CCOCC4)c4sc(CN5CCC(C(N)=O)CC5)cc4n3)n2)c1 [Ex. 297],52 to 100,
Cc1cccc(-c2ccn(-c3cc(N4CCOCC4)c4nc(C(=O)NC5COC5)[nH]c4n3)n2)c1 [Ex. 298],52 to 100,
"Cc1cccc(-c2ccn(-c3cc(N4CCOCC4)c4sc(C(=O)NC5CCOCC5)cc4n3)n2)c1 [Ex. 177, 7-Morpholino-N-(tetrahydro-2H-pyran-4-yl)-5-(3-(m-tolyl)-1H-pyrazol-1-yl)thieno[3,2-b]pyridine-2-carboxamide]",52 to 100,
"Cc1cccc(-c2ccn(-c3nc(N4CCOCC4)c4sc(NCCS(C)(=O)=O)nc4n3)n2)c1 [Ex. 209, N-(2-(Methylsulfonyl)ethyl)-7-morpholino-5-(3-(m-tolyl)-1H-pyrazol-1-yl)thiazolo[4,5-d]pyrimidin-2-amine]",52 to 100,
Cc1cccc(-c2ccn(-c3cc(N4CCOCC4)c4nc(C(=O)N5CCN(S(C)(=O)=O)CC5)[nH]c4n3)n2)c1 [Ex. 87],,inhibition at 0.001 µM [1]: 20%
Cc1cccc(-c2ccn(-c3cc(N4CCOCC4)c4sc(C(=O)N5CCN(S(C)(=O)=O)CC5)c(C)c4n3)n2)c1 [Ex. 291],52 to 100,
Cc1cccc(-c2ccn(-c3cc(N4CCOCC4)c4sc(C(=O)NC5(C)COC5)cc4n3)n2)c1 [Ex. 252],52 to 100,
Cc1cccc(-c2nc(-c3cc(N4CCOCC4)c4sc(CN5CCN(S(C)(=O)=O)CC5)cc4n3)co2)c1 [Ex. 242],,inhibition at 0.003 µM [1]: 8%
"Cc1cccc(-c2ccn(-c3nc(N4CCOCC4)c4nc(CN5CCN(C(C)C)CC5)[nH]c4n3)n2)c1 [Ex. 40, 4-(8-((4-isopropylpiperazin-1-yl)methyl)-2-(3-(m-tolyl)-1H-pyrazol-1-yl)-9H-purin-6-yl)morpholine]",,IC50: 1 to 10 nM
"Cc1cccc(-c2ccn(-c3nc(N4CCOCC4)c4nc(C(=O)N5CCC(N6CCC6)C(F)C5)[nH]c4n3)n2)c1 (stereo not drawn) [Ex. 85, (4-(Azetidin-1-yl)-3-fluoropiperidin-1-yl) (6-morpholino-2-(3-(m-tolyl)-1H-pyrazol-1-yl)-9H-purin-8-yl)methanone]",52 to 100,
Cc1cccc(-c2ccn(-c3cc(N4CCOCC4)c4nc(CN5C6CC5CN(S(C)(=O)=O)C6)[nH]c4n3)n2)c1 [Ex. 285],52 to 100,

SMILES,inhibition at 0.001 µM [2] [%],further results
Cc1cccc(-c2ccn(-c3cc(N4CCOCC4)c4sc(NC(=O)C5COC5)cc4n3)n2)c1 [Ex. 232],,inhibition at 0.001 µM [1]: 24%
CC(=O)N1CCN(Cc2cc3nc(-n4ccc(-c5cccc(C)c5)n4)cc(N4CCOCC4)c3s2)CC1 [Ex. 295],52 to 100,
"Cc1cccc(-c2ccn(-c3cc(N4CCOCC4)c4nc(CN5CCC(N6CCC6)C(F)C5)n(C)c4n3)n2)c1 (stereo not drawn) [Ex. 83, 4-(2-((4-(azetidin-1-yl)-3-fluoropiperidin-1-yl)methyl)-3-methyl-5-(3-(m-tolyl)-1H-pyrazol-1-yl)-3H-imidazo[4,5-b]pyridin-7-yl)morpholine]",52 to 100,
Cc1cccc(-c2ccn(-c3nc(N4CCOCC4)c4sc(CO)cc4n3)n2)c1 [Ex. 311],52 to 100,
Cc1cccc(-c2ccn(-c3cc(N4CCOCC4)c4nc(CN5CC6CC5CN6S(C)(=O)=O)[nH]c4n3)n2)c1 (stereo not drawn) [Ex. 281],52 to 100,
"Cc1cccc(-c2ccn(-c3nc(N4CCOCC4)c4sc(C#CCN(C)C)cc4n3)n2)c1 [Ex. 207, N,N-Dimethyl-3-(4-morpholino-2-(3-(m-tolyl)-1H-pyrazol-1-yl)thieno[3,2-d]pyrimidin-6-yl)prop-2-yn-1-amine]",,inhibition at 0.001 µM [1]: 35%
Cc1cccc(-c2ccn(-c3cc(N4CCOCC4)c4nc(C(=O)NC5COC5)n(C)c4n3)n2)c1 [Ex. 308],52 to 100,
Cc1cccc(-c2ccn(-c3cc(N4CCOCC4)c4nc(CN5CCN(S(=O)(=O)C6CC6)CC5)[nH]c4n3)n2)c1 [Ex. 280],,inhibition at 0.001 µM [1]: 46%
Cc1cccc(-c2nc(-c3nc(N4CCOCC4)c4sc(CN5CCN(S(C)(=O)=O)CC5)cc4n3)co2)c1 [Ex. 241],,inhibition at 0.003 µM [1]: 0%
Cc1cccc(-c2ccn(-c3cc(N4CCOCC4)c4sc(NC(=O)C5CNC5)cc4n3)n2)c1 [Ex. 278],52 to 100,
"Cc1cccc(-c2ccn(-c3cc(N4CCOCC4)c4sc(C(=O)NC5CC5)cc4n3)n2)c1 [Ex. 183, N-cyclopropyl-7-morpholino-5-(3-(m-tolyl)-1H-pyrazol-1-yl)thieno[3,2-b]pyridine-2-carboxamide]",52 to 100,
Cc1cccc(-c2ccn(-c3cc(N4CCOCC4)c4nc(CN5CCC(C(N)=O)CC5)[nH]c4n3)n2)c1 [Ex. 303],52 to 100,
CC(=O)NC1CCN(Cc2cc3nc(-n4ccc(-c5cccc(C)c5)n4)cc(N4CCOCC4)c3s2)CC1 [Ex. 296],52 to 100,
Cc1cccc(-c2ccn(-c3cc(N4CCOCC4)c4sc(NC(=O)C5CCCN(C)C5)cc4n3)n2)c1 (stereo not drawn) [Ex. 272],,inhibition at 0.001 µM [1]: 44%
"Cc1cccc(-c2ccn(-c3cc(N4CCOCC4)c4sc(CO)c(C)c4n3)n2)c1 [Ex. 166, (3-Methyl-7-morpholino-5-(3-(m-tolyl)-1H-pyrazol-1-yl)thieno[3,2-b]pyridin-2-yl)methanol]",,inhibition at 0.001 µM [1]: 34%; inhibition at 0.003 µM [1]: 14%
Cc1cccc(-c2ccn(-c3cc(N4CCOCC4)c4sc(C(=O)N5CCC(N6CC(F)C6)CC5)cc4n3)n2)c1 [Ex. 237],52 to 100,
CNC(=O)c1cc2nc(-n3ccc(-c4cccc(C)c4)n3)cc(N3CCOCC3)c2s1 [Ex. 247],52 to 100,
Cc1cccc(-c2ccn(-c3nc4[nH]c(C(=O)N5CCN(S(C)(=O)=O)CC5)nc4c(N4CCOCC4)c3F)n2)c1 [Ex. 292],,inhibition at 0.001 µM [1]: 13%
Cc1cccc(-c2ccn(-c3cc(N4CCOCC4)c4sc(NC(=O)C5CCN(C)CC5)cc4n3)n2)c1 [Ex. 235],52 to 100,
Cc1cccc(-c2ccn(-c3cc(N4CCOCC4)c4sc(C(=O)N5CCN(S(C)(=O)=O)CC5)cc4n3)n2)c1 [Ex. 240],52 to 100,
Cc1cccc(-c2ccn(-c3cc(N4CCOCC4)c4sc(C(=O)NCCN(C)C)cc4n3)n2)c1 [Ex. 255],52 to 100,
"CC(=O)c1cccc(-c2ccn(-c3cc(N4CCOCC4)c4sc(CN5CCOCC5)cc4n3)n2)c1 [Ex. 184, 1-(3-(1-(7-Morpholino-2-(morpholinomethyl)thieno[3,2-b]pyridin-5-yl)-1H-pyrazol-3-yl)phenyl) ethan-1-one]",,inhibition at 0.005 µM [1]: 10%
Cc1cccc(-c2ccn(-c3cc(N4CCOCC4)c4nc(COCc5ccccc5)[nH]c4n3)n2)c1 [Ex. 316],52 to 100,
Cc1cccc(-c2ccn(-c3cc(N4CCOCC4)c4sc(C(=O)Nc5ccccn5)cc4n3)n2)c1 [Ex. 299],52 to 100,
"Cc1cccc(-c2ccn(-c3cc(N4CCOCC4)c4sc(CN5CCOCC5)c(C)c4n3)n2)c1 [Ex. 167, 4-(3-Methyl-2-(morpholinomethyl)-5-(3-(m-tolyl)-1H-pyrazol-1-yl)thieno[3,2-b]pyridin-7-yl)morpholine]",,inhibition at 0.001 µM [1]: 7%
"Cc1cccc(-c2ccn(-c3cc(N4CCOCC4)c4sc(CN5CCN(C(C)C)CC5)c(C)c4n3)n2)c1 [Ex. 132, 4-(2-((4-Isopropylpiperazin-1-yl)methyl)-3-methyl-5-(3-(m-tolyl)-1H-pyrazol-1-yl)thieno[3,2-b]pyridin-7-yl)morpholine]",52 to 100,
